Tested on: fibroblasts
Test: collagen metabolism / amino acid up-take by fibroblasts
Assay type: cell-based
From the text: […]. An improved synthesis of collagen means a faster substitution of the degraded old fibers of collagen with the new ones.

Structure (SMILES)	activity on collagen metabolism	capability of the fibroblasts to up-take amino acids such as L-Proline and L-Hydroxyproline
C[C@H]1[C@H](C)CC[C@]2(C(=O)O)CC[C@]3(C)C(=CC[C@@H]4[C@@]5(C)C[C@@H](O)[C@H](O)[C@@](C)(CO)[C@@H]5CC[C@]43C)[C@H]12 [asiatic acid]	strong activity	improve
C[C@H]1[C@H](C)CC[C@]2(C(=O)O)CC[C@]3(C)C(=CC[C@@H]4[C@@]5(C)C[C@@H](O)[C@H](O)[C@@](C)(CO)[C@@H]5[C@H](O)C[C@]43C)[C@H]12 [madecassic acid]	strong activity	improve

From US7214395B2, “Pharmaceutical and cosmetic composition against skin aging” (Indena S.p.A., priority 2001, dated 2007)
